According to the supplement of paper PMC11061612:

Tests used:
[1] = system: HCC1937 (Breast Carcinoma); test: combination Emax (second highest fraction inhibited in the dose matrix, 72 h); higher = more inhibition; extreme values may be limits of the assay
Outline: (§1)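 Cell lines in DMEM/F12 or RPMI with 10% FBS were plated in 1536-well plates, held 24 hours at 37°C, 5% CO2, then given two-drug dose matrices for 72 hours (DMSO typically 0.2%). Viability was read by CellTiter-Glo 2.0 luminescence and scaled as inhibition from 0 (vehicle wells) to 1 (blank wells). Combination Emax is the second-highest inhibition in the matrix; Bliss excess is observed combination effect minus expected EA + EB − EA·EB, EA and EB being single-agent effects.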

[2] = system: Ca-Ski (Cervical Carcinoma); test: as above
Outline: as §1

[3] = system: NCI-H1092 (Small Cell Lung Carcinoma); test: Bliss excess, mean over the matrix (fraction); higher = more synergy
Outline: as §1

[4] = system: KMRC-1 (Kidney Carcinoma); test: as above
Outline: as §1

[5] = system: HCC1500 (Breast Carcinoma); test: as above
Outline: as §1

[6] = system: MV-4-11 (Acute Myeloid Leukemia); test: as above
Outline: as §1

[7] = system: HCC2998 (Colorectal Carcinoma); test: as above
Outline: as §1

[8] = system: HCC1937 (Breast Carcinoma); test: as above
Outline: as §1

[9] = system: Mo-T (Other Blood Carcinomas); test: as above
Outline: as §1

COLO-679 (Melanoma) = test: as above
Outline: as §1

[10] = system: NCI-H1838 (Lung Adenocarcinoma); test: as above
Outline: as §1

[11] = system: OE33 (Esophageal Adenocarcinoma); test: as above
Outline: as §1

[12] = system: MOLT-4 (T-Lymphoblastic Leukemia); test: as above
Outline: as §1

[13] = system: SW872 (Other Solid Carcinomas); test: as above
Outline: as §1

[14] = system: KGN (Other Solid Carcinomas); test: as above
Outline: as §1

[15] = system: ML-2 (Acute Myeloid Leukemia); test: as above
Outline: as §1

[16] = system: SW982 (Other Solid Carcinomas); test: as above
Outline: as §1

[17] = system: Ca-Ski (Cervical Carcinoma); test: as above
Outline: as §1

[18] = system: HAL-01 (B-Lymphoblastic Leukemia); test: as above
Outline: as §1

SK-N-AS (Neuroblastoma) = test: as above
Outline: as §1
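Throughout, for Bliss excess, mean over the matrix: after 72 h of two-drug dosing.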

SMILES | combination Emax [1] | combination Emax [2] | Bliss excess [3] | Bliss excess [4] | Bliss excess [5] | Bliss excess [6] | Bliss excess [7] | Bliss excess [8] | Bliss excess [9] | Bliss excess (COLO-679 (Melanoma)) | Bliss excess [10] | Bliss excess [11] | Bliss excess [12] | Bliss excess [13] | Bliss excess [14] | Bliss excess [15] | Bliss excess [16] | Bliss excess [17] | Bliss excess [18] | Bliss excess (SK-N-AS (Neuroblastoma))
CC(=O)c1c(C)c2cnc(Nc3ccc(N4CCNCC4)cn3)nc2n(C2CCCC2)c1=O [Palbociclib] + Cn1cnc2c(F)c(Nc3ccc(Br)cc3Cl)c(C(=O)NOCCO)cc21 [Selumetinib] (first compound max 10 µM, 7x7, partner max 10 µM) | 0.214 | 0.301 | -0.0322 | -0.0461 | -0.0229 | 0.0537 | 0.0041 | -0.0788 | -0.0225 | 0.0157 | -0.0003 | -0.02 | -0.012 | -0.0263 | 0 | 0.0685 | -0.058 | -0.0701 | 0.0297 | 0.0583
C[C@@H]1COCCN1c1cc(C2([S@](C)(=N)=O)CC2)nc(-c2ccnc3[nH]ccc23)n1 [AZD6738] + O=C(c1cc(Cc2n[nH]c(=O)c3ccccc23)ccc1F)N1CCN(C(=O)C2CC2)CC1 [Olaparib] (first compound max 10 µM, 7x7, partner max 10 µM) | 0.517 | 0.647 | -0.0333 | 0.0003 | 0.0412 | -0.0566 | 0.0443 | -0.0665 | 0.0311 | -0.0163 | -0.138 | -0.0384 | 0.0556 | 0.0206 | -0.0087 | -0.0667 | -0.0202 | 0.0414 | 0.003 | 0.0223
CS(=O)(=O)CCNCc1ccc(-c2ccc3ncnc(Nc4ccc(OCc5cccc(F)c5)c(Cl)c4)c3c2)o1 [Lapatinib] + NC1(c2ccc(-c3nc4ccn5c(=O)[nH]nc5c4cc3-c3ccccc3)cc2)CCC1 [MK-2206] (first compound max 10 µM, 7x7, partner max 10 µM) | 0.841 | 0.758 | 0.0182 | 0.0098 | 0.0415 | 0.0371 |  | -0.0343 | 0.0719 | -0.031 | -0.0422 | -0.0133 | 0.0866 | -0.0066 | 0.0078 | 0.0017 | -0.0099 | 0.0103 | 0.0687 | -0.0327
CN(CCO)CC[C@H](CSc1ccccc1)Nc1ccc(S(=O)(=O)NC(=O)c2ccc(N3CCC([C@@H](O)c4ccccc4-c4ccc(Cl)cc4)CC3)cc2)cc1S(=O)(=O)C(F)(F)F [AZD4320] + C=CCn1c(=O)c2cnc(Nc3ccc(N4CCN(C)CC4)cc3)nc2n1-c1cccc(C(C)(C)O)n1 [AZD1775] (first compound max 1 µM, partner max 1 µM) | 0.791 | 0.96 | 0.0527 | 0.0036 | 0.11 |  | 0.0609 | 0.0878 | 0.0529 | -0.0078 | -0.0311 | -0.0093 | 0.0674 | 0.0035 | -0.0387 | -0.0228 | 0.0247 | 0.0198 | 0.0695 | -0.0292
C=CCn1c(=O)c2cnc(Nc3ccc(N4CCN(C)CC4)cc3)nc2n1-c1cccc(C(C)(C)O)n1 [AZD1775] + C1CN(CCC1(C(=O)N[C@@H](CCO)C2=CC=C(C=C2)Cl)N)C3=NC=NC4=C3C=CN4 [Capivasertib] (first compound max 3 µM, partner max 3 µM) | 0.873 | 0.825 | -0.0497 | -0.0762 | -0.0462 |  | 0.0232 | -0.0385 | -0.05 | -0.0625 | -0.0978 | -0.0326 | 0.0536 | -0.106 | -0.0195 | -0.0148 | -0.0415 | 0.0161 | -0.0528 | -0.0806
C=CCn1c(=O)c2cnc(Nc3ccc(N4CCN(C)CC4)cc3)nc2n1-c1cccc(C(C)(C)O)n1 [AZD1775] + C[C@@H]1COCCN1C2=NC(=NC(=C2)C3(CC3)[S@](=N)(=O)C)C4=C5C=CNC5=NC=C4 [AZD6738] (first compound max 1 µM, partner max 10 µM) | 0.68 | 0.869 | 0.0124 | -0.002 | 0.0279 | -0.0103 | 0.0923 | -0.0717 | -0.0271 | -0.0995 | -0.0173 | -0.0081 | 0.0397 | 0.053 | -0.0578 | 0.0095 | -0.019 | 0.0052 |  | 0.0189
